Measurements: US9302999B2, “Substituted triazoles as herbicides” (E. I. DU PONT DE NEMOURS AND COMPANY, priority 2012, dated 2016)

Legend:
Assay type in all cases: in vivo
[1] = tested on: panicum, fall (fall panicum Panicum dichotomiflorum); assay: Test F pre-/postemergence: panicum, fall
From the text: (§1) Seeds of plant species selected from corn (Zea mays), soybean (Glycine max), velvetleaf (Abutilon theophrasti), lambsquarters (Chenopodium album), poinsettia, wild (wild poinsettia, Euphorbia heterophylla), pigweed, palmer (palmer pigweed, Amaranthus palmeri), waterhemp (common waterhemp, Amaranthus rudis), surinam grass (Brachiaria decumbens), crabgrass, Brazil (Brazilian crabgrass, Digitaria horizontalis), panicum, fall (fall panicum Panicum dichotomiflorum), crabgrass, large (large crabgrass, Digitaria sanguinalis), foxtail, giant (giant foxtail, Setaria faberii), foxtail, green (green foxtail Setaria viridis), goosegrass (Eleusine indica), ragweed (common ragweed, Ambrosia elatior), barnyardgrass (Echinochloa crus-galli), sandbur (southern sandbur, Cenchrus echinatus), arrowleaf sida (Sida rhombifolia), ryegrass, Italian (Italian ryegrass, Lolium multiflorum), dayflower, VA (Virginia (VA) dayflower, Commelina virginica), field bindweed (Convolvulus arvensis), cocklebur (common cocklebur, Xanthium strumarium), morningglory (Ipomoea coccinea), nightshade (eastern black nightshade, Solanum ptycanthum), kochia (Kochia scoparia), nutsedge, yellow (yellow nutsedge, Cyperus esculentus), johnsongrass (Sorghum halepense), smartweed (ladysthumb smartweed, Polygonum persicaria), and beggarticks (hairy beggarticks, Bidens pilosa), were planted into a silt loam soil and treated preemergence with test chemicals formulated in a non-phytotoxic solvent mixture which included a surfactant. At the same time, plants selected from these crop and weed species and also pigweed (Amaranthus retroflexus), waterhemp_RES1 (ALS/Triazine resistant common waterhemp, Amaranthus rudis) and waterhemp_RES2 (ALS/HPPD resistant common waterhemp, Amaranthus rudis) were planted in pots containing a planting medium comprising spaghnum peat moss, vermiculite, wetting agent and starter nutrients treated with postemergence applications of some of the test chemicals formulated in the same manner. Plants ranged in height from 2 to 18 cm for postemergence treatments (1- to 4-leaf stage).
(§2) Treated plants and controls were maintained in a greenhouse for 14 to 21 days, after which time all species were compared to controls and visually evaluated. Plant response ratings, summarized in Table E, are based on a scale of 0 to 100 where 0 is no effect and 100 is complete control. A dash (-) response means no test result.

[2] = tested on: cocklebur (common cocklebur, Xanthium strumarium); assay: Test F pre-/postemergence: cocklebur; settings: Preemergence
From the text: as §1, §2

[3] = tested on: goosegrass (Eleusine indica); assay: Test F pre-/postemergence: goosegrass; settings: Preemergence
From the text: as §1, §2

[4] = tested on: morningglory (Ipomoea coccinea); assay: Test F pre-/postemergence: morningglory; settings: Preemergence
From the text: as §1, §2

[5] = tested on: waterhemp (common waterhemp, Amaranthus rudis); assay: Test F pre-/postemergence: waterhemp
From the text: as §1, §2

[6] = tested on: Russian thistle (Salsola iberica); assay: Test D pre-/postemergence: Russian thistle; settings: Postemergence
Outline: (§3)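 Pre- and postemergence herbicide screen. Soil for pre: silt loam; post medium: peat moss, vermiculite, wetting agent, starter nutrients. Plant stage at post: 1- to 4-leaf. Readout: visual % control, 14–21 days.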

[7] = tested on: chickweed (common chickweed, Stellaria media); assay: Test D pre-/postemergence: chickweed
Outline: as §3

[8] = tested on: buckwheat, wild (wild buckwheat, Polygonum convolvulus); assay: Test D pre-/postemergence: buckwheat, wild
Outline: as §3

[9] = Postemergence, 16 g ai/ha, scale 0 to 100
[10] = Postemergence, 31 g ai/ha, scale 0 to 100
[11] = Postemergence, 125 g ai/ha, scale 0 to 100
[12] = Postemergence, 250 g ai/ha, scale 0 to 100
[13] = Preemergence, 31 g ai/ha, scale 0 to 100, 0 no effect, 100 complete control
[14] = Preemergence, 125 g ai/ha, scale 0 to 100
[15] = Preemergence, 250 g ai/ha, scale 0 to 100
[16] = 31 g ai/ha, scale 0 to 100, 0 no effect, 100 complete control
[17] = Preemergence, 16 g ai/ha, scale 0 to 100, 0 no effect, 100 complete control
[18] = 16 g ai/ha, scale 0 to 100, 0 no effect, 100 complete control
[19] = Postemergence, 31 g ai/ha, scale 0 to 100 (0 no effect, 100 complete control)
[20] = Postemergence, 62 g ai/ha, scale 0 to 100 (0 no effect, 100 complete control)
[21] = Postemergence, 125 g ai/ha, scale 0 to 100, 0 no effect, 100 complete control
[22] = Preemergence, 62 g ai/ha, scale 0 to 100

## Cc1nn(-c2ccnc(Cl)c2)nc1Cc1ccnc(C(F)(F)F)c1 [Compound 141]
[1]; Postemergence, 8 g ai/ha, scale 0 to 100
  Plant response rating, Panicum, Fall: 30
[1]; [9]
  Plant response rating, Panicum, Fall: 50
[1]; [10]
  Plant response rating, Panicum, Fall: 50
[1]; Postemergence, 62 g ai/ha, scale 0 to 100
  Plant response rating, Panicum, Fall: 60
[1]; [11]
  Plant response rating, Panicum, Fall: 75

## CCCc1nn(-c2ccc(F)c(F)c2)nc1Oc1ccnc(C(F)(F)F)c1 [Compound 172]
[1]; [12]
  Plant response rating, Panicum, Fall: 50
[1]; [10]
  Plant response rating, Panicum, Fall: 20
[1]; [11]
  Plant response rating, Panicum, Fall: 50
[1]; [13]
  Plant response rating, Panicum, Fall: 75
[1]; [14]
  Plant response rating, Panicum, Fall: 100
[1]; [15]
  Plant response rating, Panicum, Fall: 100
[2]; 250 g ai/ha, scale 0 to 100
  Plant response rating, Cocklebur: 5
[3]; [16]
  Plant response rating, Goosegrass: 98
[3]; 125 g ai/ha, scale 0 to 100
  Plant response rating, Goosegrass: 100
[3]; 250 g ai/ha, scale 0 to 100
  Plant response rating, Goosegrass: 100
[4]; [16]
  Plant response rating, Morningglory: 0
[4]; 125 g ai/ha, scale 0 to 100
  Plant response rating, Morningglory: 5
[4]; 250 g ai/ha, scale 0 to 100
  Plant response rating, Morningglory: 5
[5]; [12]
  Plant response rating, Waterhemp: 100
[5]; [10]
  Plant response rating, Waterhemp: 95
[5]; [11]
  Plant response rating, Waterhemp: 100
[5]; [13]
  Plant response rating, Waterhemp: 98
[5]; [14]
  Plant response rating, Waterhemp: 100
[5]; [15]
  Plant response rating, Waterhemp: 100

## CCc1nn(-c2ccc(F)cc2)nc1Cc1ccnc(C(F)(F)F)c1 [Compound 154]
[1]; [17]
  Plant response rating, Panicum, Fall: 15
[1]; [13]
  Plant response rating, Panicum, Fall: 90
[1]; [14]
  Plant response rating, Panicum, Fall: 100
[1]; [15]
  Plant response rating, Panicum, Fall: 100
[2]; [18]
  Plant response rating, Cocklebur: 0
[2]; 62 g ai/ha, scale 0 to 100
  Plant response rating, Cocklebur: 0
[2]; 250 g ai/ha, scale 0 to 100
  Plant response rating, Cocklebur: 0
[3]; [18]
  Plant response rating, Goosegrass: 10
[3]; [16]
  Plant response rating, Goosegrass: 95
[3]; 62 g ai/ha, scale 0 to 100
  Plant response rating, Goosegrass: 95
[3]; 125 g ai/ha, scale 0 to 100
  Plant response rating, Goosegrass: 100
[3]; 250 g ai/ha, scale 0 to 100
  Plant response rating, Goosegrass: 100
[5]; [17]
  Plant response rating, Waterhemp: 50
[5]; [13]
  Plant response rating, Waterhemp: 60
[5]; [14]
  Plant response rating, Waterhemp: 100
[5]; [15]
  Plant response rating, Waterhemp: 100

## CCc1nn(-c2ccc(C(F)(F)F)cc2)nc1Cc1ccnc(C(F)(F)F)c1 [Compound 155]
[6]; 31 g ai/ha, scale 0 to 100 (0 no effect, 100 complete control)
  Plant response rating: Russian Thistle: 80
[6]; 62 g ai/ha, scale 0 to 100 (0 no effect, 100 complete control)
  Plant response rating: Russian Thistle: 85
[6]; 125 g ai/ha, scale 0 to 100, 0 no effect, 100 complete control
  Plant response rating: Russian Thistle: 85
[6]; 16 g ai/ha, scale 0 to 100
  Plant response rating, Russian Thistle: 70
[1]; [14]
  Plant response rating, Panicum, Fall: 100
[1]; [15]
  Plant response rating, Panicum, Fall: 100
[2]; 62 g ai/ha, scale 0 to 100
  Plant response rating, Cocklebur: 0
[2]; 125 g ai/ha, scale 0 to 100
  Plant response rating, Cocklebur: 40
[2]; 250 g ai/ha, scale 0 to 100
  Plant response rating, Cocklebur: 40
[3]; 62 g ai/ha, scale 0 to 100
  Plant response rating, Goosegrass: 100
[3]; 125 g ai/ha, scale 0 to 100
  Plant response rating, Goosegrass: 100
[3]; 250 g ai/ha, scale 0 to 100
  Plant response rating, Goosegrass: 100
[7]; [19]
  Plant response rating: Chickweed: 70
[7]; [20]
  Plant response rating: Chickweed: 75
[7]; [21]
  Plant response rating: Chickweed: 100
[7]; [9]
  Plant response rating, Chickweed: 65
[7]; [17]
  Plant response rating, Chickweed: 35
[7]; [13]
  Plant response rating, Chickweed: 50
[7]; [22]
  Plant response rating, Chickweed: 100
[7]; [14]
  Plant response rating, Chickweed: 100
[8]; [19]
  Plant response rating: Buckwheat, Wild: 70
[8]; [20]
  Plant response rating: Buckwheat, Wild: 70
[8]; [21]
  Plant response rating: Buckwheat, Wild: 75
[8]; [9]
  Plant response rating, Buckwheat, Wild: 75
[8]; [17]
  Plant response rating, Buckwheat, Wild: 10
[8]; [13]
  Plant response rating, Buckwheat, Wild: 25
[8]; [22]
  Plant response rating, Buckwheat, Wild: 50
[8]; [14]
  Plant response rating, Buckwheat, Wild: 70
[5]; [14]
  Plant response rating, Waterhemp: 100
[5]; [15]
  Plant response rating, Waterhemp: 100
